Source: patent publication US6355238B1, “Specific immune system modulation” (Yale University, priority 1992, dated 2002)

Experiments:
[1] = compared with 8-MOP; Calzavara-Pinton et al. 1992; cited from earlier work
[2] = biological target: Lysozyme (Gallus gallus, UniProt P00698); experiment: Covalent photobinding of 8-MOP to lysozyme (liquid scintillation, [3H]8-MOP); format: binding; settings: lysozyme 0.4 mg/ml, 8-MOP 0.04 mg/ml
Description: Lysozyme (0.4 mg/ml) and 8-MOP (0.04 mg/ml) including trace amounts of [3H]8-MOP) were exposed to UVA (3.6 mW/cm^2; filtered with window glass to remove UVB). Aliquots were taken after 15, 30, 60 and 120 min. UVA exposure and were dialyzed exhaustively using distilled water in a microdialyzer (BRL, Bethesda, Md.). An aliquot of each sample was analyzed by liquid scintillation analysis to determine the extent of covalent photobinding of 8-MOP.

[3] = biological target: T1, Chick ovalbumin (Gallus gallus, UniProt P01012); experiment: Covalent photobinding of 8-MOP to ovalbumin with visible light; format: binding
T1 sequence (P01012 1-386): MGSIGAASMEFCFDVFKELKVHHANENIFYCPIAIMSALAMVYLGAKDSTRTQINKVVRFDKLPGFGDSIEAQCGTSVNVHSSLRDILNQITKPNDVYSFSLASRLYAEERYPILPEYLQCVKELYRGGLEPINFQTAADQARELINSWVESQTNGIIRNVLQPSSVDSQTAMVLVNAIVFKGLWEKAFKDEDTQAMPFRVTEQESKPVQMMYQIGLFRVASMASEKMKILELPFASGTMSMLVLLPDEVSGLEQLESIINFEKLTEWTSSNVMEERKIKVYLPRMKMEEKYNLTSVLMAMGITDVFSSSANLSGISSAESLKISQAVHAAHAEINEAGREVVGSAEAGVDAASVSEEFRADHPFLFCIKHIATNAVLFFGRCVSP
Description: Approximately 0.1% photoadducts were observed per amino acid.
Ovalbumin (0.4 mg/ml) and 8-MOP (0.04 mg/ml) containing trace amounts of [^3H]8-MOP) were exposed to visible radiation (419 nm) for 60 min. and thereafter, dialyzed exhaustively using distilled water in a microdialyzer (BRL, Bethesda, Md.). An aliquot of the sample was analyzed by liquid scintillation analysis.

Lysozyme, sequence (P00698 19-147): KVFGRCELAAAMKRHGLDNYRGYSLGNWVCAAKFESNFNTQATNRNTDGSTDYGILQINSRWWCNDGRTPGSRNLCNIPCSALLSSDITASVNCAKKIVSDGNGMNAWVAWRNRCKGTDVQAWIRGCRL

SMILES | efficacy in the treatment of psoriasis [1] | moles 8-MOP/moles Lysozyme ([2]; 0 min UVA exposure) | moles 8-MOP/moles Lysozyme ([2]; 30 min UVA exposure (3.6 mW/cm^2)) | moles 8-MOP/moles Lysozyme ([2]; 60 min UVA exposure (3.6 mW/cm^2)) | moles 8-MOP/moles Lysozyme ([2]; 120 min UVA exposure (3.6 mW/cm^2)) | photoadducts per amino acid ([3]; visible light (419 nm)) | extent of covalent photobinding of 8-MOP to ovalbumin ([3]; visible radiation (419 nm) 60 min, ovalbumin 0.4 mg/ml, 8-MOP 0.04 mg/ml)
COc1c2ccoc2cc2oc(=O)ccc12 [5-MOP, 5-methoxypsoralen] | not as efficacious as 8-MOP | – | – | – | – | – | –
COc1c2occc2cc2ccc(=O)oc12 [8-MOP, 8-methoxypsoralen] | – | 0 moles 8-MOP/moles Lysozyme | 0.90 moles 8-MOP/moles Lysozyme | 2.04 moles 8-MOP/moles Lysozyme | 1.86 moles 8-MOP/moles Lysozyme | Approximately 0.1% | approximately 0.039 8-MOP molecules/ovalbumin molecule
